Measured values published in US20070293399A1, “SUBSTITUTED DIAMINO-1,3,5-TRIAZINES, PROCESSES FOR THEIR PREPARATION AND THEIR USE AS HERBICIDES AND CROP GROWTH REGULATORS” (Bayer CropScience AG, priority 2006, published 2007).

What was measured:
[1] = test system: Sinapis alba, Echinochloa crus-galli, Lolium multiflorum, Stellaria media, Cyperus iria, Amaranthus retroflexus, Setaria viridis, Avena sativa, Lamium …; assay: Post-emergence herbicidal action (greenhouse pot test); assay type: in vivo; conditions: application rate of 1 kg and less of active substance per hectare; treated at three-leaf stage; scored visually after approx. 3 to 4 weeks in comparison to untreated controls
Description: Seeds or rhizome pieces of mono- and dicotyledonous weeds were placed in sandy loam in plastic pots, covered with soil and grown in a greenhouse under good growth conditions. Three weeks after the sowing, the test plants were treated at the three-leaf stage. The inventive compounds formulated as spray powders or as emulsion concentrates were sprayed onto the green plant parts in various dosages with an application rate of from 600 to 800 l/ha of water (converted). After the test plants had been left to stand in the greenhouse under optimal growth conditions for approx. 3 to 4 weeks, the action of the preparations was scored visually in comparison to untreated controls. The inventive compositions also had good post-emergence herbicidal activity against a wide spectrum of economically important gramineous and broadleaf weeds.

[2] = test system: Stellaria media, Lolium multiflorum, Amaranthus retroflexus, Sinapis alba, Avena sativa and Setaria viridis; assay: Pre-emergence herbicidal action (greenhouse pot test); assay type: in vivo; conditions: application rate of 1 kg or less of active substance per hectare; scored visually after 3 to 4 weeks in comparison to untreated controls
Description: Seeds or rhizome pieces of mono- and dicotyledonous weed plants were placed in sandy loam in plastic pots and covered with soil. The inventive compounds, which have been formulated in the form of wettable powders or emulsion concentrates, were then applied to the surface of the covering soil as an aqueous suspension or emulsion in different dosages with an application rate of from 600 to 800 l/ha of water (converted).

Row | SMILES | herbicidal action against harmful plants in the post-emergence method [1] | herbicidal action against harmful plants in the pre-emergence method [2]
1 | CC(=O)Nc1ncnc(NC2c3cc(F)ccc3CC2C)n1 (racemic) [Compound 1.1] | very good herbicidal action | very good herbicidal action
2 | CC1Cc2ccc(F)cc2C1Nc1ncnc(NC(=O)C(Cl)(Cl)Cl)n1 (racemic) [Compound 1.2] | very good herbicidal action | very good herbicidal action
3 | CC1Cc2ccc(F)cc2C1Nc1ncnc(NC(=O)C(F)(F)F)n1 (racemic) [Compound 1.3] | very good herbicidal action | very good herbicidal action
4 | CC1Cc2ccc(F)cc2C1Nc1ncnc(NC(=O)CCl)n1 (racemic) [Compound 1.4] | very good herbicidal action | very good herbicidal action
5 | CCC(=O)Nc1ncnc(NC2c3cc(F)ccc3CC2C)n1 (racemic) [Compound 1.5] | very good herbicidal action | very good herbicidal action
6 | COC(=O)Nc1nc(CF)nc(NC2c3cc(F)ccc3CC2C)n1 (racemic) [Compound 1.11] | very good herbicidal action | very good herbicidal action
7 | CCC(=O)Nc1nc(CF)nc(NC2c3cc(F)ccc3CC2C)n1 (racemic) [Compound 1.12] | very good herbicidal action | very good herbicidal action
8 | CC1Cc2ccc(F)cc2C1Nc1nc(CF)nc(NC(=O)C(F)(F)F)n1 (racemic) [Compound 1.13] | very good herbicidal action | very good herbicidal action
9 | CC1Cc2ccc(F)cc2C1Nc1nc(CF)nc(NC(=O)C(Cl)(Cl)Cl)n1 (racemic) [Compound 1.14] | very good herbicidal action | very good herbicidal action
10 | CC(=O)Nc1nc(NC2CCOc3c(C)cc(F)cc32)nc(C2CC2)n1 (racemic) [Compound 1.31] | very good herbicidal action | very good herbicidal action
11 | COCc1nc(NC(C)=O)nc(NC2CCc3ccccc32)n1 (racemic) [Compound 1.32] | very good herbicidal action | very good herbicidal action
12 | CC(=O)Nc1nc(NC2CCOc3c(C)cc(F)cc32)nc(C(C)Cc2ccc(F)cc2)n1 (racemic) [Compound 1.33] | very good herbicidal action | very good herbicidal action
13 | CCC(=O)Nc1nc(NC2CCOc3c(C)cc(F)cc32)nc(C(C)Cc2ccc(F)cc2)n1 (racemic) [Compound 1.38] | very good herbicidal action | very good herbicidal action
14 | COCc1nc(NC(C)=O)nc(NC2CCCc3c(C)cc(C)cc32)n1 (racemic) [Compound 1.39] | very good herbicidal action | very good herbicidal action
15 | CC(=O)Nc1ncnc(NC2c3cccc(C)c3CC2C)n1 (racemic) [Compound 1.46] | very good herbicidal action | very good herbicidal action
16 | CC(=O)Nc1ncnc(NC2CCOc3ccc(C)cc32)n1 (racemic) [Compound 1.47] | very good herbicidal action | very good herbicidal action
17 | Cc1ccc2c(c1)C(Nc1nc(NC(=O)C(Cl)(Cl)Cl)nc(C(C)F)n1)CCO2 (racemic) [Compound 1.51] | very good herbicidal action | very good herbicidal action
18 | Cc1ccc2c(c1C)OCCC2Nc1nc(NC(=O)C2CC2)nc(C2CC2)n1 (racemic) [Compound 1.70] | very good herbicidal action | very good herbicidal action
19 | CC(=O)Nc1ncnc(N[C@@H]2CCCc3ccccc32)n1 [Compound 2.1, N1-{4-[(1R)-1,2,3,4-Tetrahydro-1-naphthylamino]-1,3,5-triazin-2-yl}acetamide] | very good herbicidal action | very good herbicidal action
20 | CCC(=O)Nc1ncnc(N[C@@H]2CCCc3ccccc32)n1 [Compound 2.2] | very good herbicidal action | very good herbicidal action
21 | CC(=O)Nc1ncnc(N[C@H]2c3cc(C)ccc3C[C@@H]2C)n1 [Compound 2.9] | very good herbicidal action | very good herbicidal action
22 | Cc1ccc2c(c1)[C@H](Nc1ncnc(NC(=O)C(F)(F)F)n1)[C@@H](C)C2 [Compound 2.12, N-(4-{[(1R,2S)-2,6-Dimethyl-2,3-dihydro-1H-inden-1-yl]-amino}-1,3,5-triazin-2-yl)-2,2,2-trifluoroacetamide] | very good herbicidal action | very good herbicidal action
23 | CC(=O)Nc1nc(N[C@H]2c3cc(C)ccc3C[C@@H]2C)nc([C@@H](C)F)n1 [Compound 2.13] | very good herbicidal action | very good herbicidal action
24 | CCC(=O)Nc1nc(N[C@H]2c3cc(C)ccc3C[C@@H]2C)nc([C@@H](C)F)n1 [Compound 2.14] | very good herbicidal action | very good herbicidal action
25 | Cc1ccc2c(c1)[C@H](Nc1nc(NC(=O)C(F)(F)F)nc([C@@H](C)F)n1)[C@@H](C)C2 [Compound 2.26] | very good herbicidal action | very good herbicidal action
26 | CC(=O)Nc1nc(N[C@@H]2CCCc3ccccc32)nc([C@@H](C)F)n1 [Compound 2.31] | very good herbicidal action | very good herbicidal action
27 | C[C@@H](F)c1nc(NC(=O)C(F)(F)F)nc(N[C@@H]2CCCc3ccccc32)n1 [Compound 2.32] | very good herbicidal action | very good herbicidal action
28 | CC(=O)Nc1nc(C)nc(N[C@H]2c3cc(C)ccc3C[C@@H]2C)n1 [Compound 2.33] | very good herbicidal action | very good herbicidal action
29 | C[C@@H](F)c1nc(NCCC#N)nc(N[C@@H]2CCCc3ccccc32)n1 [Compound 2.38, 3-({4-[(1R)-1-Fluoroethyl]-6-[(1R)-1,2,3,4-tetrahydronaphth-1-ylamino]-1,3,5-triazin-2-yl}amino)propanenitrile] | very good herbicidal action | very good herbicidal action
30 | C[C@@H](F)c1nc(N[C@@H]2CCCc3ccccc32)nc(N(CCC#N)CCC#N)n1 [Compound 2.39, 3,3′-({4-[(1R)-1-Fluoroethyl]-6-[(1R)-1,2,3,4-tetrahydronaphth-1-ylamino]-1,3,5-triazin-2-yl}imino)dipropanenitrile] | very good herbicidal action | very good herbicidal action
